Results on seven compounds are retold here after patent publication US12090146B2, “Substituted-pyridinyl compounds and uses thereof” (Bionomics Limited, priority 2018, dated 2024).

For assay [1], the target named is T1, hKv3.2 (Homo sapiens, UniProt Q96PR1).
T1 construct: expressed in transfected cells
T1 sequence (Q96PR1 1-638): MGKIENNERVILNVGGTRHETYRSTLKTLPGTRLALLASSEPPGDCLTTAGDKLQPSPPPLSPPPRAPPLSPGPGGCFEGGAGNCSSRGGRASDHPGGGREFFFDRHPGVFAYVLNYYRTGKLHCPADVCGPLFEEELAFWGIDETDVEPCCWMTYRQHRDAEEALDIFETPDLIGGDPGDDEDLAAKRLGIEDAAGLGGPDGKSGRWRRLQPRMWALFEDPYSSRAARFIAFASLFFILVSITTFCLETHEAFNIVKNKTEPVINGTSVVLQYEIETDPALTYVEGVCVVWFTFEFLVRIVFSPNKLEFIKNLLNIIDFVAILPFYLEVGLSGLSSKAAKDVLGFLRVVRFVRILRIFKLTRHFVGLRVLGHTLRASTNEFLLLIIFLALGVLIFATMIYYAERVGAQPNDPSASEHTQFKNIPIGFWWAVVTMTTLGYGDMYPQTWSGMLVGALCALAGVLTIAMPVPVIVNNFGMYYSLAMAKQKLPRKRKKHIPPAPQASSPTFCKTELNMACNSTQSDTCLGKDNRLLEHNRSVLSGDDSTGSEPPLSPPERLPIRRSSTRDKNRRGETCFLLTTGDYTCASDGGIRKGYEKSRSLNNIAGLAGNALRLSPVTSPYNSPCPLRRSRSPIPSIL
As to the kind of experiment: Automated patch clamp (Patchliner) whole-cell electrophysiology, Kv3.2. The format is cell-based. The settings on record: 10 μM compound, CHO-K1 cells stably expressing hKv3.2; for activation at 10 µM: % potentiation of peak current at −10 mV voltage step vs vehicle; for Kv3.2 Activity at 10 μM Voltage Shift (mV): voltage shift of the IV curve at V1/2. As for the experimental part: hKv3.1, hKv3.2, hKv3.3, and hKv3.4 were stably expressed in CHO-K1 (Chinese hamster ovary) cells and kept under constant antibiotic selection. For in vitro assays, cells were maintained in appropriate growth medium at 37° C. and 5% CO2 in a humidified incubator.
hKv3.X expressing cells were plated in T-25 flasks for 3-4 days at 37° C. (no selection antibiotic) prior to use and grown to 80% confluence. Cells were washed twice with PBS (calcium and magnesium free) and detached with a 5-minute treatment at 37° C. with 2-3 mls of Accutase®. Cells were collected, and flask was washed in CHO-SFM II media (Life Technologies Gibco), centrifuged for 2 minutes at ˜110×g and resuspended to obtain a single cell suspension of ˜2-3×10^6 cells/ml.
The intracellular solution contained the following (in mM): KCl 50, NaCl 10, KF 60, EGTA 20, HEPES 10, adjusted to pH 7.2 with KOH and an osmolarity of 285 mOsmol. Seal enhancer was purchased from Nanion (80 mM NaCl, 3 mM KCl, 10 mM MgCl2, 35 mM CaCl2), 10 mM HEPES, pH7.4, 298 mOsmol. The external solution contained (in mM): NaCl 140, KCl 4, CaCl2) 2, MgCl2 1, HEPES 10, Glucose 5, adjusted to pH7.4 and an osmolarity of 298 mOsmol.
All compounds were initially tested at 10 uM at a final DMSO concentration of 0.33%. Compounds were dissolved in dimethylsulfoxide (DMSO) at a stock concentration of 30 mM. The compound was further diluted 1:10 to give a stock concentration of 3 mM in DMSO. The final assay solution was diluted 1:300 in External solution to give a final concentration of 10 uM. For the DMSO Control Buffer 30 uL of DMSO was added to 10 mL buffer.
All electrophysiological recordings were performed at ambient temperature (21-23° C.) using automated patch clamp (Patchliner, Nanion Technologies GmbH) in the whole-cell configuration.
Cell membrane potentials were held at −80 mV, and currents were evoked by voltage steps (1000 ms duration) from −60 to +60 mV in 10 mV increments. This was performed first with vehicle (0.33% DMSO) and then with 10 uM compound, after a 3-minute incubation period. Data was taken from 4 cells per assay.
The recordings were analysed and selected using peak current amplitude (>100 pA at the −10 mV voltage step) in the absence of compound to eliminate unsuitable cells from analysis. Peak current amplitude was measured and recorded for each voltage step and data was normalised to the maximum current at +60 mV. The normalised Kv3.x currents following addition of the compound were then compared with the currents recorded prior to compound addition (vehicle control). Positive modulation was determined as % potentiation at the voltage step of −10 mV=[current (cmpd)/current (veh)]*100−100. % potentiation ≥50% was considered acceptable. In addition, voltage shift of the IV curve at V1/2 was measured. V1/2 of ≥−5 mV was also considered acceptable. IV curves were plotted in GraphPad Prism (software version 6.0) and fitted with a Boltzmann equation, where V1/2 is the voltage at half-maximal activation.
On the technique in general: In patch-clamp work, channel activity is measured electrically.

Assay [2] concerns the target T2, hKv3.1 (Homo sapiens, UniProt P48547).
T2 construct: expressed in transfected cells
T2 sequence (P48547 1-511): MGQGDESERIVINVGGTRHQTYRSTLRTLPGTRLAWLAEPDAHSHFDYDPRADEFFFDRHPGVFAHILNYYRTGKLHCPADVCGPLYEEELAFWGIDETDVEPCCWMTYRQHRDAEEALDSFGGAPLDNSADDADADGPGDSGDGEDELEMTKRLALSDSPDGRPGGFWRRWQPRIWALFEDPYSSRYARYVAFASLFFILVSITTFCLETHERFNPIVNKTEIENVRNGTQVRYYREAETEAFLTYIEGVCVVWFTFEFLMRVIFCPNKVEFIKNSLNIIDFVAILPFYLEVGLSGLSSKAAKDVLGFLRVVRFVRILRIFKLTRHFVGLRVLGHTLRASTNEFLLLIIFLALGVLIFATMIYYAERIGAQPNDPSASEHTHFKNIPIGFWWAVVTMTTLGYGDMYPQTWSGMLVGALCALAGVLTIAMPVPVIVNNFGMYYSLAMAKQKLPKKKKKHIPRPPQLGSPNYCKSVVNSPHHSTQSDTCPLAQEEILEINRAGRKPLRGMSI
In words: Automated patch clamp (Patchliner) whole-cell electrophysiology, Kv3.1. The settings on record: 10 μM compound, CHO-K1 cells stably expressing hKv3.1; for Kv3.1 Activity at 10 μM Potentiation (%): % potentiation of peak current at −10 mV voltage step vs vehicle; for Kv3.1 Activity at 10 μM Voltage Shift (mV): voltage shift of the IV curve at V1/2. The format is cell-based. Summed up: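 CHO-K1 cells stably expressing hKv3.x recorded by whole-cell automated patch clamp at 21-23 °C, held at −80 mV with 1000 ms steps from −60 to +60 mV, vehicle then 10 uM compound (0.33% DMSO, 3-min incubation), 4 cells. Currents normalized to +60 mV; % potentiation at −10 mV and Boltzmann V1/2 shift reported.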

In the case of `CC[C@@]1(C)NC(=O)N(c2cccc(Oc3cc(OC)cc(OC)c3)n2)C1=O` [Example 70, (5R)-3-[6-(3,5-dimethoxyphenoxy)-2-pyridyl]-5-ethyl-5-methyl-imidazolidine-2,4-dione], in assay [1], the activation at 10 µM is 34% and the “Kv3.2 Activity at 10 μM Voltage Shift (mV)” value is −2.42 mV. Also, in assay [2], the “Kv3.1 Activity at 10 μM Potentiation (%)” value is reported as 44% and the “Kv3.1 Activity at 10 μM Voltage Shift (mV)” value is given as −2.08 mV.

Regarding `COc1cc(Oc2cccc(N3C(=O)NC4(CCCCC4)C3=O)n2)ccc1C` [Example 75, 3-[6-(3-methoxy-4-methyl-phenoxy)-2-pyridyl]-1,3-diazaspiro[4.5]decane-2,4-dione], in assay [1], the activation at 10 µM was 5% and the “Kv3.2 Activity at 10 μM Voltage Shift (mV)” value is on record as 0 mV. For the same compound, in assay [2], the “Kv3.1 Activity at 10 μM Potentiation (%)” value is 15% and the “Kv3.1 Activity at 10 μM Voltage Shift (mV)” value is −4.01 mV.

On to `CC1(C)NC(=O)N(c2ccc(F)c(Oc3ccc4c(c3)OC(F)(F)O4)n2)C1=O` [Example 84, 3-[6-[(2,2-difluoro-1,3-benzodioxol-5-yl)oxy]-5-fluoro-2-pyridyl]-5,5-dimethyl-imidazolidine-2,4-dione], for which, in assay [1], the activation at 10 µM came out at 14% and the “Kv3.2 Activity at 10 μM Voltage Shift (mV)” value is −1.69 mV. Also, in assay [2], the “Kv3.1 Activity at 10 μM Potentiation (%)” value was 30% and the “Kv3.1 Activity at 10 μM Voltage Shift (mV)” value was −2.27 mV.

For the compound `COc1cc(Oc2nccc(N3C(=O)NC4(CCCC4)C3=O)c2F)ccc1C` [Example 90, 3-[3-fluoro-2-(3-methoxy-4-methyl-phenoxy)-4-pyridyl]-1,3-diazaspiro[4.4]nonane-2,4-dione], in assay [1], the activation at 10 µM was found to be 121% and the “Kv3.2 Activity at 10 μM Voltage Shift (mV)” value is on record as −7.43 mV. In assay [2], the “Kv3.1 Activity at 10 μM Potentiation (%)” value is given as 217% and the “Kv3.1 Activity at 10 μM Voltage Shift (mV)” value was −10.39 mV.

As for `COc1cc(Oc2nccc(N3C(=O)NC4(CCCCC4)C3=O)c2F)ccc1C` [Example 91, 3-[3-fluoro-2-(3-methoxy-4-methyl-phenoxy)-4-pyridyl]-1,3-diazaspiro[4.5]decane-2,4-dione], in assay [1], the activation at 10 µM was 137% and the “Kv3.2 Activity at 10 μM Voltage Shift (mV)” value is −6.75 mV. In assay [2], the “Kv3.1 Activity at 10 μM Potentiation (%)” value was 150% and the “Kv3.1 Activity at 10 μM Voltage Shift (mV)” value is recorded as −10.63 mV.

Regarding `O=C1NC2(CCCC2)C(=O)N1c1ccnc(Oc2ccc3c(c2)OC(F)(F)O3)c1F` [Example 92, 3-[2-[(2,2-difluoro-1,3-benzodioxol-5-yl)oxy]-3-fluoro-4-pyridyl]-1,3-diazaspiro[4.4]nonane-2,4-dione], in assay [1], the activation at 10 µM is 93% and the “Kv3.2 Activity at 10 μM Voltage Shift (mV)” value was −5.37 mV. In addition, in assay [2], the “Kv3.1 Activity at 10 μM Potentiation (%)” value stood at 227% and the “Kv3.1 Activity at 10 μM Voltage Shift (mV)” value was −7.49 mV.

Regarding `O=C1NC2(CCCCC2)C(=O)N1c1ccnc(Oc2ccc3c(c2)OC(F)(F)O3)c1F` [Example 93, 3-[2-[(2,2-difluoro-1,3-benzodioxol-5-yl)oxy]-3-fluoro-4-pyridyl]-1,3-diazaspiro[4.5]decane-2,4-dione], in assay [1], the activation at 10 µM was 71% and the “Kv3.2 Activity at 10 μM Voltage Shift (mV)” value is −6.55 mV. Further, in assay [2], the “Kv3.1 Activity at 10 μM Potentiation (%)” value was 142% and the “Kv3.1 Activity at 10 μM Voltage Shift (mV)” value is given as −8.79 mV.
